# Measurements: paper PMC7730238, “Temporin-Like Peptides Show Antimicrobial and Anti-Biofilm Activities against Streptococcus mutans with Reduced Hemolysis” (Molecules, 2020)
# No end group written: not given here.
# Key:
# [1] = system: P. aeruginosa PAO1 (wild type); assay type: cell-based, Pseudomonas aeruginosa; details: for MIC: PAO1; for MBC: PAO1, 24 h
# Text: (§1) The strains were used in the experiments, including Gram-positive bacteria Staphylococcus aureus (ATCC 25923), Bacillus subtilis (ATCC 6633), Streptococcus mutans (ATCC 25175), Methicillin-resistant Staphylococcus aureus (ATCC 43300), Methicillin-resistant Staphylococcus aureus 1–3 (clinically isolated, number 1–3), Gram-negative bacteria Escherichia coli (ATCC 25922), E. coli (D 31), Pseudomonas aeruginosa (ATCC 15442), P. aeruginosa PAO1 (wild type), and the fungus Candida albicans (ATCC 10231). S. mutans was cultured in Brain Heart Infusion Broth (BHI, Beijing Land Bridge, China) under anaerobic condition; C. albicans was grown in Sabouraud Dextrose Broth (SDB, HuanKai Microbial, Guangzhou, China); and the other bacterial strains were grown in Tryptic Soy Broth (TSB, HuanKai Microbial, Guangzhou, China). All bacteria and fungi were cultivated to the logarithmic phase at 37 °C before experiments were performed.
# (§2) The antimicrobial activities of the peptides were measured by the two-fold dilution method. Each strain was inoculated in the medium and cultivated to the logarithmic phase. A series of diluted peptides (concentrations of 3.1–100 μM, 50 μL) were prepared in a 96-well plate (Corning, New York, NY, USA), and the same volume of the bacterial suspension (the final concentration of 1 × 10^6 CFU/mL) was added. After incubation at 37 °C for 18–24 h, the absorbance at 600 nm was measured by using a microplate reader (Multiskan Spectrum, BioTek, Winuski, VT, USA). […] All tests were performed in triplicate independent experiments.
# (§3) From the MIC measuring plates, 50 μL of bacteria suspension in the presence of peptides when the concentrations were equal and up to MICs was spread on the BHI agar medium, and incubated at 37 °C for 24 h. The peptide concentration with no bacterial growth was defined as MBC [33].
# [2] = system: S. mutans biofilms; assay type: cell-based, Streptococcus mutans; details: S. mutans in BHI with 1% sucrose, 24 h anaerobic, CV staining, absorbance 590 nm
# Method: CV was used to detect the effects of the peptides on the formation of biofilm and the eradication of mature biofilm. 100 μL of S. mutans in the logarithmic phase was diluted in BHI (containing 1% sucrose) to the concentration of 2 × 10^6 CFU/mL. The suspensions were added to the equal volume of the peptides (the final concentrations of 0.8–12.5 μM). After incubation at 37 °C under anaerobic conditions for 24 h, the supernatant was discarded. The plate was irrigated with PBS carefully to wash away the planktonic bacteria. After fixing with anhydrous methanol for 15 min, 0.5% CV was added to each well for staining the biofilms. The excess CV was washed away by PBS (pH 7.2), and the bound CV was dissolved with anhydrous methanol. A microplate reader (Multiskan Spectrum, BioTek, Winuski, VT, USA) was used to measure the absorbance value of 590 nm. MBIC50 was defined as the lowest peptide concentration that inhibited 50% of biofilm formation.
# [3] = system: Bacillus subtilis (ATCC 6633); assay type: cell-based; details: for MIC: ATCC 6633; for MBC: ATCC 6633, 24 h
# Text: as §1, §2, §3
# [4] = system: Candida albicans (ATCC 10231); assay type: cell-based; details: for MIC: ATCC 10231; for MBC: ATCC 10231, 24 h
# Text: as §1, §2, §3
# [5] = system: Streptococcus mutans (ATCC 25175); assay type: cell-based; details: for MIC: ATCC 25175; for MBC: ATCC 25175, 24 h
# Text: as §1, §2, §3
# [6] = system: Staphylococcus aureus (ATCC 25923); assay type: cell-based; details: for MIC: ATCC 25923; for MBC: ATCC 25923, 24 h
# Text: as §1, §2, §3
# [7] = system: Escherichia coli (ATCC 25922); assay type: cell-based; details: for MIC: ATCC 25922; for MBC: ATCC 25922, 24 h
# Text: as §1, §2, §3
# [8] = system: Pseudomonas aeruginosa (ATCC 15442); assay type: cell-based; details: for MIC: ATCC 15442; for MBC: ATCC 15442, 24 h
# Text: as §1, §2, §3
# [9] = system: E. coli (D31), anti-streptomycin strain; assay type: cell-based, Escherichia coli; details: 37 °C; for MIC: TSB, 1 × 10^6 CFU/mL, 18–24 h, absorbance 600 nm, triplicate, first value of cell; for MBC: plated from MIC wells on agar, 24 h, no growth, second value of cell
# Text: as §1, §2, §3
# [10] = system: S. mutans mature biofilms; assay: Mature biofilm eradication, crystal violet; assay type: cell-based, Streptococcus mutans; details: 24 h mature S. mutans biofilms, 24 h treatment, CV staining, absorbance 590 nm
# Method: To evaluate the ability of the peptides to eradicate the mature biofilms of S. mutans, the bacteria (the final concentration of 1 × 10^6 CFU/mL) were seeded in a flat bottom 96-well plate for 24 h to obtain the mature biofilms. The planktonic bacteria were washed away, and the peptides with the concentrations of 3.1–50 μM were added. After treatment for 24 h, CV was used for staining and quantification as described above. The biofilms untreated with the peptides served as the negative control. MBEC50 was defined as the lowest peptide concentration that removed 50% of the mature biofilm.
# [11] = system: methicillin-resistant S. aureus (ATCC 43300); assay type: cell-based, Staphylococcus aureus; details: for MIC: ATCC 43300; for MBC: ATCC 43300, 24 h
# Text: as §1, §2, §3
# [12] = system: MRSA-2, methicillin-resistant S. aureus (clinically isolated, No.2); assay type: cell-based, Staphylococcus aureus; details: for MIC: -2, methicillin-resistant (clinically isolated, No.2); for MBC: -2, methicillin-resistant (clinically isolated, No.2, 24 h)
# Text: as §1, §2, §3
# [13] = system: MRSA-3, methicillin-resistant S. aureus (clinically isolated, No.3); assay type: cell-based, Staphylococcus aureus; details: for MIC: -3, methicillin-resistant (clinically isolated, No.3); for MBC: -3, methicillin-resistant (clinically isolated, No.3, 24 h)
# Text: as §1, §2, §3
# [14] = system: MRSA-1, methicillin-resistant S. aureus (clinically isolated, No.1); assay type: cell-based, Staphylococcus aureus; details: for MIC: -1, methicillin-resistant (clinically isolated, No.1); for MBC: -1, methicillin-resistant (clinically isolated, No.1, 24 h)
# Text: as §1, §2, §3
# [15] = system: Human red blood cells (hRBCs); assay type: cell-based
# Method: The hemolytic toxicity of the peptides was determined as described. Human red blood cells (hRBCs) were washed with phosphate-buffered saline (PBS, pH 7.2) and centrifuged at 1000× g for 10 min at 4 °C until the supernatant was clear. 4% hRBCs and an equal volume of the peptides with different concentrations were incubated at 37 °C for 1 h. After incubation, the supernatant was collected by centrifugation, and 150 μL was transferred to a new 96-well plate (Corning, New York, NY, USA). The absorbance at 450 nm was measured. The 0.1% Triton X-100 was used as the positive control, and PBS was used as the negative control. The minimum hemolysis concentration (MHC) was defined as the lowest concentration of peptide that causes 10% hemolysis, and HL50 was the lowest concentration that causes 50% hemolysis. CSI was defined as the ratio of HL50 to MIC [31].
Sequence,MIC [1],MBC [1],MIC [4],MBC [4],MIC [5],MBC [5],MIC [6],MBC [6],MIC [7],MBC [7],MIC [8],MBC [8],MIC [11],MBC [11],MIC [12],MBC [12],MIC [13],MBC [13],MIC [14],MBC [14],also measured
FLQRIIRALGRLF [GHaR7R],> 50 µM,> 50 µM,25 µM,25 µM,6.2 µM,12.5 µM,3.1 µM,3.1 µM,3.1 µM,12.5 µM,> 50 µM,> 50 µM,3.1 µM,6.2 µM,6.2 µM,50 µM,6.2 µM,25 µM,6.2 µM,25 µM,MBIC50 (lowest peptide concentration that inhibited 50% of biofilm formation) [2]: 6.2 µM; MIC [3]: > 50 µM; MBC [3]: > 50 µM; MIC [9]: 12.5 µM; MBC [9]: 50 µM; MBEC50 (lowest peptide concentration that removed 50% of the mature biofilm) [10]: 25 µM
FLQRIIGAWGRLF [GHaR9W],25 µM,50 µM,25 µM,25 µM,6.2 µM,6.2 µM,3.1 µM,6.2 µM,12.5 µM,12.5 µM,> 50 µM,> 50 µM,6.2 µM,12.5 µM,6.2 µM,12.5 µM,6.2 µM,12.5 µM,6.2 µM,12.5 µM,HL50 relative to that of GHaR [15]: 1–5 times higher
FLQRIRGALGRLF [GHaR6R],3.1 µM,25 µM,50 µM,50 µM,12.5 µM,12.5 µM,3.1 µM,12.5 µM,12.5 µM,12.5 µM,> 50 µM,> 50 µM,6.2 µM,12.5 µM,12.5 µM,25 µM,6.2 µM,25 µM,12.5 µM,25 µM,MBIC50 (lowest peptide concentration that inhibited 50% of biofilm formation) [2]: 6.2 µM; MIC [3]: 25 µM; MBC [3]: 50 µM; MIC [9]: 25 µM; MBC [9]: 50 µM; MBEC50 (lowest peptide concentration that removed 50% of the mature biofilm) [10]: 25 µM; time to complete eradication: < 15 min; HL50 relative to that of GHaR [15]: 1–5 times higher
FLQRIIGARGRLF [GHaR9R],> 50 µM,> 50 µM,> 50 µM,> 50 µM,> 50 µM,> 50 µM,6.2 µM,12.5 µM,> 50 µM,> 50 µM,> 50 µM,> 50 µM,> 50 µM,> 50 µM,> 50 µM,> 50 µM,> 50 µM,> 50 µM,> 50 µM,> 50 µM,MIC [3]: > 50 µM; MBC [3]: > 50 µM
FLQRIIGRLGRLF [GHaR8R],6.2 µM,12.5 µM,12.5 µM,12.5 µM,6.2 µM,6.2 µM,1.6 to 3.1 µM,3.1 µM,3.1 µM,3.1 µM,50 µM,> 50 µM,3.1 µM,3.1 µM,3.1 µM,12.5 µM,6.2 µM,12.5 µM,6.2 µM,6.2 µM,MBIC50 (lowest peptide concentration that inhibited 50% of biofilm formation) [2]: 1.6 µM; MIC [3]: 12.5 µM; MBC [3]: 12.5 µM; MIC [9]: 12.5 µM; MBC [9]: 25 µM; MBEC50 (lowest peptide concentration that removed 50% of the mature biofilm) [10]: 12.5 µM; time to complete eradication: < 15 min; HL50 relative to that of GHaR [15]: 1–5 times higher
FLQRIIGALGRLF [GHaR],25 µM,50 µM,12.5 µM,50 µM,3.1 µM,6.2 µM,1.6 µM,1.6 µM,6.2 µM,6.2 µM,6.2 µM,6.2 µM,3.1 µM,3.1 µM,6.2 µM,12.5 µM,3.1 µM,6.2 µM,3.1 µM,25 µM,–
